Tested on: Subjects with Osteoarthritis of the Knee
Test: Second Phase 2 study: safety (treatment-emergent adverse events)
Format: in vivo, human
From the text: Safety assessments will be performed at each visit and will include assessment of AEs, vital signs (blood pressure, pulse rate, and oral temperature), clinical laboratories, physical examination, skin irritation, and electrocardiograms (ECGs) as indicated in the study flow chart, Table 47.
Safety assessments will include AEs, vital signs (blood pressures, pulse rate, and oral temperature), clinical laboratories, physical examination, skin irritation, and ECGs at various time points during the study as indicated in the study flow chart.
Adverse events of interest include: local skin reactions around the treated knee(s), upper stomach pain, GI bleeding, serious cardiovascular side effects (e.g., thrombotic events, myocardial infarction, or stroke), jaundice, elevated liver function tests, and nausea.
Safety analyses will be conducted on the SAS. Safety parameters will be listed and summarized using standard descriptive statistics, as appropriate. No formal statistical analyses are planned.

CCN(CC)CCOC(=O)C(C)c1ccc(CC(C)C)cc1 (stereo not drawn) [2-(diethylamino)ethyl 2-(4-isobutylphenyl)propionate]
Abdominal Discomfort: percentage of subjects with adverse events (8.75 mg/knee, BID, N = 70): 4.3%
Abdominal Discomfort: subjects with adverse events (8.75 mg/knee, BID, N = 70): 3
Abdominal Pain Upper: number of adverse events (8.75 mg/knee, BID, N = 70): 1
Abdominal Pain Upper: percentage of subjects with adverse events (8.75 mg/knee, BID, N = 70): 1.4%
Abdominal Pain Upper: subjects with adverse events (8.75 mg/knee, BID, N = 70): 1
Administration Site Conditions: number of adverse events (8.75 mg/knee, BID, N = 70): 1
Administration Site Conditions: percentage of subjects with adverse events (8.75 mg/knee, BID, N = 70): 1.4%
Administration Site Conditions: subjects with adverse events (8.75 mg/knee, BID, N = 70): 1
Alanine Aminotransferase Increased: number of adverse events (8.75 mg/knee, BID, N = 70): 1
Alanine Aminotransferase Increased: percentage of subjects with adverse events (8.75 mg/knee, BID, N = 70): 1.4%
Alanine Aminotransferase Increased: subjects with adverse events (8.75 mg/knee, BID, N = 70): 1
Application Site Irritation: number of adverse events (8.75 mg/knee, BID, N = 70): 1
Application Site Irritation: percentage of subjects with adverse events (8.75 mg/knee, BID, N = 70): 1.4%
Application Site Irritation: subjects with adverse events (8.75 mg/knee, BID, N = 70): 1
Back Pain: number of adverse events (8.75 mg/knee, BID, N = 70): 2(%)[2]
Back Pain: subjects with adverse events, number (percentage) (8.75 mg/knee, BID, N = 70): 2(%)[2]
Blood Lactate Dehydrogenase Increased: number of adverse events (8.75 mg/knee, BID, N = 70): 1
Blood Lactate Dehydrogenase Increased: percentage of subjects with adverse events (8.75 mg/knee, BID, N = 70): 1.4%
Blood Lactate Dehydrogenase Increased: subjects with adverse events (8.75 mg/knee, BID, N = 70): 1
Diarrhoea: number of adverse events (8.75 mg/knee, BID, N = 70): 2
Diarrhoea: percentage of subjects with adverse events (8.75 mg/knee, BID, N = 70): 2.9%
Diarrhoea: subjects with adverse events (8.75 mg/knee, BID, N = 70): 2
Dizziness: number of adverse events (8.75 mg/knee, BID, N = 70): 2
Dizziness: subjects with adverse events, number (percentage) (8.75 mg/knee, BID, N = 70): 2(2.9%)
Ear and Labyrinth Disorders: number of adverse events (8.75 mg/knee, BID, N = 70): 2
Ear and Labyrinth Disorders: percentage of subjects with adverse events (8.75 mg/knee, BID, N = 70): 2.9%
Ear and Labyrinth Disorders: subjects with adverse events (8.75 mg/knee, BID, N = 70): 2
Frequency of Positive Fecal Occult Blood Test (8.75 mg/knee, BID, N = 70): 6
Gastrointestinal Disorders: number of adverse events (8.75 mg/knee, BID, N = 70): 11
Gastrointestinal Disorders: percentage of subjects with adverse events (8.75 mg/knee, BID, N = 70): 14.3%
Gastrointestinal Disorders: subjects with adverse events (8.75 mg/knee, BID, N = 70): 10
Headache: number of adverse events (8.75 mg/knee, BID, N = 70): 6
Headache: subjects with adverse events, number (percentage) (8.75 mg/knee, BID, N = 70): 4(5.7%)
Hypercholesterolaemia: number of adverse events (8.75 mg/knee, BID, N = 70): 5
Hypercholesterolaemia: percentage of subjects with adverse events (8.75 mg/knee, BID, N = 70): 7.1%
Hypercholesterolaemia: subjects with adverse events (8.75 mg/knee, BID, N = 70): 5
Hypertension: number of adverse events (8.75 mg/knee, BID, N = 70): 1
Hypertension: percentage of subjects with adverse events (8.75 mg/knee, BID, N = 70): 1.4%
Hypertension: subjects with adverse events (8.75 mg/knee, BID, N = 70): 1
Hypertriglyceridemia: number of adverse events (8.75 mg/knee, BID, N = 70): 3
Hypertriglyceridemia: percentage of subjects with adverse events (8.75 mg/knee, BID, N = 70): 4.3%
Hypertriglyceridemia: subjects with adverse events (8.75 mg/knee, BID, N = 70): 3
Hypoaesthesia: number of adverse events (8.75 mg/knee, BID, N = 70): 1
Hypoaesthesia: subjects with adverse events, number (percentage) (8.75 mg/knee, BID, N = 70): 1(1.4%)
Infections and Infestations: number of adverse events (8.75 mg/knee, BID, N = 70): 20
Infections and Infestations: subjects with adverse events, number (percentage) (8.75 mg/knee, BID, N = 70): 20(28.6%)
Influenza: number of adverse events (8.75 mg/knee, BID, N = 70): 1
Influenza: subjects with adverse events, number (percentage) (8.75 mg/knee, BID, N = 70): 1(1.4%)
Investigations: number of adverse events (8.75 mg/knee, BID, N = 70): 5
Investigations: percentage of subjects with adverse events (8.75 mg/knee, BID, N = 70): 7.1%
Investigations: subjects with adverse events (8.75 mg/knee, BID, N = 70): 5
Joint Stiffness: number of adverse events (8.75 mg/knee, BID, N = 70): 1(%)[1]
Joint Stiffness: subjects with adverse events, number (percentage) (8.75 mg/knee, BID, N = 70): 1(%)[1]
Metabolism and Nutrition Disorders: number of adverse events (8.75 mg/knee, BID, N = 70): 8
Metabolism and Nutrition Disorders: percentage of subjects with adverse events (8.75 mg/knee, BID, N = 70): 12.9%
Metabolism and Nutrition Disorders: subjects with adverse events (8.75 mg/knee, BID, N = 70): 8
Musculoskeletal and Connective Tissue Disorders, Overall Total: number of adverse events (8.75 mg/knee, BID, N = 70): 7
Musculoskeletal and Connective Tissue Disorders, Overall Total: subjects with adverse events, number (percentage) (8.75 mg/knee, BID, N = 70): 7(10.0%)
Nausea: number of adverse events (8.75 mg/knee, BID, N = 70): 3
Nausea: percentage of subjects with adverse events (8.75 mg/knee, BID, N = 70): 4.3%
Nausea: subjects with adverse events (8.75 mg/knee, BID, N = 70): 3
Neck Pain: number of adverse events (8.75 mg/knee, BID, N = 70): 3(%)[3]
Neck Pain: subjects with adverse events, number (percentage) (8.75 mg/knee, BID, N = 70): 3(%)[3]
Nervous System Disorders: number of adverse events (8.75 mg/knee, BID, N = 70): 8
Nervous System Disorders: subjects with adverse events, number (percentage) (8.75 mg/knee, BID, N = 70): 7(10.0%)
Oropharyngeal Pain: number of adverse events (8.75 mg/knee, BID, N = 70): 2
Oropharyngeal Pain: subjects with adverse events, number (percentage) (8.75 mg/knee, BID, N = 70): 2(1.4%)
Pain in Extremity: number of adverse events (8.75 mg/knee, BID, N = 70): 1(%)[1]
Pain in Extremity: subjects with adverse events, number (percentage) (8.75 mg/knee, BID, N = 70): 1(%)[1]
Respiratory, Thoracic and Mediastinal Disorders: number of adverse events (8.75 mg/knee, BID, N = 70): 3
Respiratory, Thoracic and Mediastinal Disorders: subjects with adverse events, number (percentage) (8.75 mg/knee, BID, N = 70): 3(4.3%)
Skin Irritation: number of adverse events (8.75 mg/knee, BID, N = 70): 1
Skin Irritation: percentage of subjects with adverse events (8.75 mg/knee, BID, N = 70): 1.4%
Skin Irritation: subjects with adverse events (8.75 mg/knee, BID, N = 70): 1
Skin and Subcutaneous Tissue Disorders: number of adverse events (8.75 mg/knee, BID, N = 70): 1
Skin and Subcutaneous Tissue Disorders: percentage of subjects with adverse events (8.75 mg/knee, BID, N = 70): 1.4%
Skin and Subcutaneous Tissue Disorders: subjects with adverse events (8.75 mg/knee, BID, N = 70): 1
Subjects with Positive Fecal Occult Blood Test (8.75 mg/knee, BID, N = 70): 5
Subjects with Positive Fecal Occult Blood Test, percentage (8.75 mg/knee, BID, N = 70): 7.1%
Throat Irritation: number of adverse events (8.75 mg/knee, BID, N = 70): 1
Throat Irritation: subjects with adverse events, number (percentage) (8.75 mg/knee, BID, N = 70): 1(1.4%)
Thrombosis: number of adverse events (8.75 mg/knee, BID, N = 70): 1
Thrombosis: percentage of subjects with adverse events (8.75 mg/knee, BID, N = 70): 1.4%
Thrombosis: subjects with adverse events (8.75 mg/knee, BID, N = 70): 1
Tooth Infection: number of adverse events (8.75 mg/knee, BID, N = 70): 1
Tooth Infection: subjects with adverse events, number (percentage) (8.75 mg/knee, BID, N = 70): 1(1.4%)
Toothache: number of adverse events (8.75 mg/knee, BID, N = 70): 1
Toothache: percentage of subjects with adverse events (8.75 mg/knee, BID, N = 70): 1.4%
Toothache: subjects with adverse events (8.75 mg/knee, BID, N = 70): 1
Transaminases Increased: number of adverse events (8.75 mg/knee, BID, N = 70): 1
Transaminases Increased: percentage of subjects with adverse events (8.75 mg/knee, BID, N = 70): 1.4%
Transaminases Increased: subjects with adverse events (8.75 mg/knee, BID, N = 70): 1
Upper Respiratory Tract Infection: number of adverse events (8.75 mg/knee, BID, N = 70): 12
Upper Respiratory Tract Infection: subjects with adverse events, number (percentage) (8.75 mg/knee, BID, N = 70): 12(15.7%)
Urinary Tract Infection: number of adverse events (8.75 mg/knee, BID, N = 70): 6
Urinary Tract Infection: subjects with adverse events, number (percentage) (8.75 mg/knee, BID, N = 70): 6(8.6%)
Vascular Disorders: number of adverse events (8.75 mg/knee, BID, N = 70): 2
Vascular Disorders: percentage of subjects with adverse events (8.75 mg/knee, BID, N = 70): 2.9%
Vascular Disorders: subjects with adverse events (8.75 mg/knee, BID, N = 70): 2
Vertigo: number of adverse events (8.75 mg/knee, BID, N = 70): 2(%)[2]
Vertigo: subjects with adverse events (8.75 mg/knee, BID, N = 70): 2(%)[2]
White Blood Cell Count Decreased: number of adverse events (8.75 mg/knee, BID, N = 70): 2
White Blood Cell Count Decreased: percentage of subjects with adverse events (8.75 mg/knee, BID, N = 70): 2.9%
White Blood Cell Count Decreased: subjects with adverse events (8.75 mg/knee, BID, N = 70): 2
GI disorders incidence rate (17.5 mg/knee (BID)): 5.7%
incidence rate of AEs possibly, probably, or definitely related to study drug (17.5 mg/knee (BID)): 35.7%
infections and infestations incidence rate (17.5 mg/knee (BID)): 18.6%
positive fecal occult blood test incidence rate (17.5 mg/knee (BID)): 7.1%
Abdominal Discomfort: number of adverse events (17.5 mg/knee, BID, N = 70): 1
Abdominal Discomfort: percentage of subjects with adverse events (17.5 mg/knee, BID, N = 70): 1.4%
Abdominal Discomfort: subjects with adverse events (17.5 mg/knee, BID, N = 70): 1
Abdominal Pain Upper: number of adverse events (17.5 mg/knee, BID, N = 70): 2
Abdominal Pain Upper: percentage of subjects with adverse events (17.5 mg/knee, BID, N = 70): 1.4%
Abdominal Pain Upper: subjects with adverse events (17.5 mg/knee, BID, N = 70): 1
Administration Site Conditions: number of adverse events (17.5 mg/knee, BID, N = 70): 4
Administration Site Conditions: percentage of subjects with adverse events (17.5 mg/knee, BID, N = 70): 5.7%
Administration Site Conditions: subjects with adverse events (17.5 mg/knee, BID, N = 70): 4
Application Site Irritation: number of adverse events (17.5 mg/knee, BID, N = 70): 1
Application Site Irritation: percentage of subjects with adverse events (17.5 mg/knee, BID, N = 70): 1.4%
Application Site Irritation: subjects with adverse events (17.5 mg/knee, BID, N = 70): 1
Application Site Rash: number of adverse events (17.5 mg/knee, BID, N = 70): 3
Application Site Rash: percentage of subjects with adverse events (17.5 mg/knee, BID, N = 70): 4.3%
Application Site Rash: subjects with adverse events (17.5 mg/knee, BID, N = 70): 3
